≈ marks a conversion by molar mass, not a printed value.
Experiments:
[1] = Suspension of milled linezolid Form II and Form III in poloxamer vehicle; format: physicochemical; details: 50 mg in one mL poloxamer vehicle, manual shaking one minute
Method: 50 mg of each form was weighed and one mL of poloxamer vehicle was added. The particles were re-suspended by manual shaking for one minute.

[2] = Dry heat sterilization: appearance and chemical stability (UPLC)
[3] = Particle size distribution by laser diffraction; format: physicochemical; details: dispersive pressure 3 bar
Description: Different crystal forms of linezolid were chosen and tested for their feasibility of suspension. Two crystal modifications (polymorphs) of Linezolid: Form II (FII) and Form III (FIII) were obtained from Symed labs Ltd (India). Approximately, 1 g each of FII and FIII was jet milled using a LaboMill jet miller (F.P.S. Food and Pharma Systems s.r.l, Italy) with an injection line pressure at 7 bar and the grind line at 4 bar. The particle size distribution of the raw and air-jet milled material was analyzed by laser diffraction (Sympatec GmbH, Helos Disperse). 5 mg of each sample was placed in a dry powder disperser (RODOS/M). A reference measurement was taken before running each sample for 5 sec at 2% optical concentration. The results were obtained at a pressure of 3 bars using lenses, R1 (0.18-0.35 μm) and R2 (0.25/0.45-87.5 μm) (Table 4). The data was collected using HELOS sensor and analyzed using Windox5 software.
The particle size distribution of the raw and air-jet milled material was analyzed by laser diffraction (Sympatec GmbH, Helos Disperse). The data on the size distribution for unmilled powder (R1) and milled powder (R4) were collected and analyzed. Air jet milling reduced the particle size from D10 4 to 6 μm (D10, 10% of the mass of the sample is comprised of particles with diameter less than this range) and D90 40 to 50 μm (D90, 90% of the mass of the sample is comprised of particles with is diameter less than this range) particle size distribution to a D10 0.4 to 0.50 μm and D90 4 to 5 μm.

[4] = Gamma irradiation: appearance and chemical stability (UPLC)
Gram-positive bacteria = details: cited from earlier work
[5] = Nitrogen, no irradiation (—), Cold
[6] = Nitrogen, no irradiation (—), RT

With `CC(=O)NC[C@H]1CN(c2ccc(N3CCOCC3)c(F)c2)C(=O)O1` [FII, (S)—N-[[3-[3-fluoro-4-(4-morpholinyl)phenyl]-2-oxo-5-oxazolidinyl]methyl] acetamide] the “Suspension behaviour of air jet milled particles” value [1] was “dispersed uniformly”, the Appearance ([2]; dry heat 120° C., 20 hr) was “Powder” and the “Chemical Stability % expected parent (2-8° C. (control) t = 0)” value (“Chemical Stability % expected parent” for short) ([2]; dry heat 120° C., 20 hr) was 100%. For the same molecule, the Appearance ([2]; dry heat 120° C., 50 hr) was “Powder”, the “Chemical Stability % expected parent” value ([2]; dry heat 120° C., 50 hr) was 99% and the Appearance ([2]; dry heat 130° C., 8 hr) was “Yellow”. For the same molecule, the “Chemical Stability % expected parent” value ([2]; dry heat 130° C., 8 hr) was 39%, the Appearance ([2]; dry heat 130° C., 20 hr) was “Yellow” and the “Chemical Stability % expected parent” value ([2]; dry heat 130° C., 20 hr) was 26%. The Appearance ([2]; dry heat 130° C., 50 hr) was “Yellow”, the “Chemical Stability % expected parent” value ([2]; dry heat 130° C., 50 hr) was 19% and the Appearance ([2]; dry heat 140° C., 4 hr) was “Yellow”. The “Chemical Stability % expected parent” value ([2]; dry heat 140° C., 4 hr) was 52%, the Appearance ([2]; dry heat 140° C., 8 hr) was “Powder” and the “Chemical Stability % expected parent” value ([2]; dry heat 140° C., 8 hr) was 97%. For the same molecule, the Appearance ([2]; dry heat 140° C., 20 hr) was “Yellow”, the “Chemical Stability % expected parent” value ([2]; dry heat 140° C., 20 hr) was 17% and the Appearance ([2]; dry heat 160° C., 2 hr) was “Yellow”. For the same molecule, the “Chemical Stability % expected parent” value ([2]; dry heat 160° C., 2 hr) was 16%, the “Particle size distribution X10” value ([3]; Jet milled) was 0.61 ± 0.01 μm and the “Particle size distribution X50” value ([3]; Jet milled) was 1.79 ± 0.03 μm. The “Particle size distribution X90” value ([3]; Jet milled) was 3.95 ± 0.04 μm, the “VMD (Volume mean diameter in μm)” value ([3]; Jet milled) was 2.07 μm and the “Particle size distribution X10” value ([3]; Raw (pre-milled)) was 0.94 μm. For the same molecule, the “Particle size distribution X50” value ([3]; Raw (pre-milled)) was 3.79 μm, the “Particle size distribution X90” value ([3]; Raw (pre-milled)) was 44.75 μm and the “VMD (Volume mean diameter in μm)” value ([3]; Raw (pre-milled)) was 14.70 μm. For the same molecule, the “Stability % 25° C. day 28” value ([4]; Air, 15 KGy, Cold) was 99.4%, the “Stability % 40° C. day 28” value ([4]; Air, 15 KGy, Cold) was 98.0% and the “Stability % t = 0” value ([4]; Air, 15 KGy, Cold) was 99%. For the same molecule, the “Stability % 25° C. day 28” value ([4]; Air, 15 KGy, RT) was 99.4%, the “Stability % 40° C. day 28” value ([4]; Air, 15 KGy, RT) was 99.1% and the “Stability % t = 0” value ([4]; Air, 15 KGy, RT) was 99.5%. For the same molecule, the “Stability % 25° C. day 28” value ([4]; Air, 25 KGy, Cold) was 99.6%, the “Stability % 40° C. day 28” value ([4]; Air, 25 KGy, Cold) was 99.7% and the “Stability % t = 0” value ([4]; Air, 25 KGy, Cold) was 100%. The “Stability % 25° C. day 28” value ([4]; Air, 25 KGy, RT) was 100%, the “Stability % 40° C. day 28” value ([4]; Air, 25 KGy, RT) was 98.9% and the “Stability % t = 0” value ([4]; Air, 25 KGy, RT) was 100%. For the same molecule, the “Stability % 25° C. day 28” value ([4]; Air, no irradiation (—), Cold) was 98.1%, the “Stability % 40° C. day 28” value ([4]; Air, no irradiation (—), Cold) was 99.6% and the “Stability % t = 0” value ([4]; Air, no irradiation (—), Cold) was 100%. For the same molecule, the “Stability % 25° C. day 28” value ([4]; Air, no irradiation (—), RT) was 99.5%, the “Stability % 40° C. day 28” value ([4]; Air, no irradiation (—), RT) was 100.1% and the “Stability % t = 0” value ([4]; Air, no irradiation (—), RT) was 100%. The “Stability % 25° C. day 28” value ([4]; Nitrogen, 15 KGy, Cold) was 97.5%, the “Stability % 40° C. day 28” value ([4]; Nitrogen, 15 KGy, Cold) was 99.3% and the “Stability % t = 0” value ([4]; Nitrogen, 15 KGy, Cold) was 100%. The “Stability % 25° C. day 28” value ([4]; Nitrogen, 15 KGy, RT) was 98.8%, the “Stability % 40° C. day 28” value ([4]; Nitrogen, 15 KGy, RT) was 99.5% and the “Stability % t = 0” value ([4]; Nitrogen, 15 KGy, RT) was 100%. The “Stability % 25° C. day 28” value ([4]; Nitrogen, 25 KGy, Cold) was 100%, the “Stability % 40° C. day 28” value ([4]; Nitrogen, 25 KGy, Cold) was 99.3% and the “Stability % t = 0” value ([4]; Nitrogen, 25 KGy, Cold) was 100%. The “Stability % 25° C. day 28” value ([4]; Nitrogen, 25 KGy, RT) was 99.6%, the “Stability % 40° C. day 28” value ([4]; Nitrogen, 25 KGy, RT) was 99.4% and the “Stability % t = 0” value ([4]; Nitrogen, 25 KGy, RT) was 100.5%. For the same molecule, the “Stability % 25° C. day 28” value [4, 5] was 99.6%, the “Stability % 40° C. day 28” value [4, 5] was 99% and the “Stability % t = 0” value [4, 5] was 100%. For the same molecule, the “Stability % 25° C. day 28” value [4, 6] was 98.7%, the “Stability % 40° C. day 28” value [4, 6] was 97.7% and the “Stability % t = 0” value [4, 6] was 99.5%.

With `CC(=O)NC[C@H]1CN(c2ccc(N3CCOCC3)c(F)c2)C(=O)O1` [FIII] the “Suspension behaviour of air jet milled particles” value ([1]; listed as Form III) was “formed lumps and were not evenly distributed”, the “Particle size distribution X10” value ([3]; Jet milled) was 0.63 ± 0.01 μm and the “Particle size distribution X50” value ([3]; Jet milled) was 2.06 ± 0.02 μm. The “Particle size distribution X90” value ([3]; Jet milled) was 4.50 ± 0.12 μm, the “VMD (Volume mean diameter in μm)” value ([3]; Jet milled) was 2.38 μm and the “Particle size distribution X10” value ([3]; Raw (pre-milled)) was 1.03 μm. For the same molecule, the “Particle size distribution X50” value ([3]; Raw (pre-milled)) was 4.33 μm, the “Particle size distribution X90” value ([3]; Raw (pre-milled)) was 11.46 μm and the “VMD (Volume mean diameter in μm)” value ([3]; Raw (pre-milled)) was 5.52 μm.

In the case of `CC(=O)NC[C@H]1CN(c2ccc(N3CCOCC3)c(F)c2)C(=O)O1` [Linezolid, (S)—N-[[3-[3-fluoro-4-(4-morpholinyl)phenyl]-2-oxo-5-oxazolidinyl]methyl] acetamide], the MIC (Gram-positive bacteria) is listed as 4 µg/mL (≈ 11.9 µM).

Reference: patent publication US11517574B2 (priority 2017, dated 2022)
